According to patent US20260055079A1, “PHTHALAZINONE COMPOUNDS AS PARP7 INHIBITORS” (AZKARRA THERAPEUTICS, INC., priority 2022, published 2026):
Read-outs that look alike come from different tables or passages of the source.

Key:
IFN-β mRNA = IFN-β mRNA by RT-qPCR in MEFs; format: cell-based, mouse; conditions: 100 nM alone
AHR target gene CYP1A1 = assay: CYP1A1 mRNA (AHR target gene) by RT-qPCR in MEFs; format: cell-based, mouse; conditions: WT MEFs
[1] = tested on: NCI-H1373 (human lung adenocarcinoma) cells; assay: Cell proliferation assay (CellTiter-Glo), NCI-H1373; format: cell-based; conditions: Homo sapiens, NCI-H1373, 144 h; 6 days, CellTiter-Glo; read-out: NCI-H1373 GI50
[2] = tested on: HARA (human lung squamous cell carcinoma) cells; assay: Cell proliferation assay (CellTiter-Glo), HARA; format: cell-based; conditions: Homo sapiens, 144 h; 6 days, CellTiter-Glo; read-out: HARA GI50
GST-tagged PARP7 = GST-tagged PARP7 (Homo sapiens (Human), UniProt Q7Z3E1); assay: PASTA biochemical PARP screening assay, PARP7
Protocol: GST-tagged PARP7 was expressed and purified as previously described (Hutin et al., 2018). Proteins were quantified by an in-gel standard curve of Bovine Serum Albumin (Bio-Rad). For PARP7, 250 ng of PARP7 was adhered to glutathione coated 96-well plates (Thermo Scientific) in PBR for 60 min at RT. […] After washing, varying concentrations of each inhibitor was pre-incubated with 20 μM (2×) 6-a-NAD^+. The solution was added to the plate, diluted to 1× in PBR, and incubated at 30° C. for 60 min. […] The plate was subsequently washed three times in PBST and once in PBS before incubation with Strep-HRP (300 ng/μl BSA, 0.05 ng/μl Strep-HRP (Jackson ImmunoResearch), 1×PBS) for 30 min at RT. The plate was washed three time in PBST and once in PBS before development with QuantaRed Enhanced Chemifluorescent HRP Substrate as described previously.

PARP6 = PARP6 (Homo sapiens (Human), UniProt Q2NL67); assay: PASTA biochemical PARP screening assay, PARP6
PARP1 = PARP1 (Homo sapiens (Human), UniProt P09874); assay: PASTA biochemical PARP screening assay, PARP1
PARP3 = PARP3 (Homo sapiens (Human), UniProt Q9Y6F1); assay: PASTA biochemical PARP screening assay, PARP3
Protocol: For PARP3, PARP4bc, and PARP16, 200-350 ng of PARP was directly adhered to nickel coated 96-well plates for 60 min at 25° C. in PBR PARP3 was activated by Dnick 5'P as previously described (Langelier, Marie-France et al. Nucleic acids research vol. 42, 12 (2014): 7762-75.). The plate was washed three times with PBST, once with PBS, and once with PBR. Varying concentrations of inhibitor were pre-incubated with NAD^+ and added to the plate (final NAD^+ concentration: 100 μM for PARP3, PARP4bc; 400 μM for PARP16). The plate was incubated at 30° C. for 60 min, then washed three times with PBST before blocking with 5% Milk in PBST. […] The plate was then washed three times with PBST and once with PBS before developing as described previously.

[3] = tested on: CT26 (mouse colon adenocarcinoma) cells; assay: Cell proliferation assay (CellTiter-Glo), CT26; format: cell-based; conditions: Mus musculus, CT26, 144 h, 6 days
[4] = tested on: AHR ligand-mediated gene transcription; assay: CYP1A1 mRNA by qPCR in mouse embryonic fibroblasts; format: cell-based; conditions: MEFs, with or without AHR agonist TCDD
Protocol: FIG. 2A provides CYP1A1 mRNA levels assessed by qPCR after treatment of wild type (WT) MEFs with increasing concentrations of Example 10 in the presence (gray bars) or absence (black bars) of the AHR agonist TCDD (1 nM). FIG. 2B provides the same as in FIG. 2A except with PARP7^−/− MEFs. FIG. 2C provides CYP1A1 mRNA levels assessed by qPCR after treatment of wild type (WT) MEFs with increasing concentrations of TCDD in the presence (gray bars) or absence (black bars) of 100 nM Example 10. FIG. 2D provides the same as in FIG. 2C, except with PARP7−/− MEFs.

PARP16 = PARP16 (Homo sapiens (Human), UniProt Q8N5Y8); assay: PASTA biochemical PARP screening assay, PARP16
PARP2 [5] = target: T1, PARP2 (Homo sapiens (Human), UniProt Q9UGN5); assay: PASTA biochemical PARP screening assay, PARP2
PARP8 = PARP8 (Homo sapiens (Human), UniProt Q8N3A8); assay: PASTA biochemical PARP screening assay, PARP8
GFP-PARP7 = GFP-PARP7 (Homo sapiens (Human), UniProt Q7Z3E1); assay: PARP7 MARylation in GFP-PARP7 expressing HEK 293T cells (western blot); format: cell-based; conditions: read-out: EC50, decrease in PARP7 MARylation
PARP4bc = PARP4bc (Homo sapiens, UniProt Q9UKK3); assay: PASTA biochemical PARP screening assay, PARP4bc
PARP15cat = PARP15cat (Homo sapiens (Human), UniProt Q460N3); assay: PASTA biochemical PARP screening assay, PARP15cat
PARP12cat = PARP12cat (Homo sapiens (Human), UniProt Q9H0J9); assay: PASTA biochemical PARP screening assay, PARP12cat
PARP2 [6] = target: T1, PARP2; assay: PARP2 biochemical assay; conditions: read-out: PARP2 IC50
PARP14wwe = PARP14wwe (Homo sapiens, UniProt Q460N5); assay: PASTA biochemical PARP screening assay, PARP14wwe
PARP10 = PARP10 (Homo sapiens (Human), UniProt Q53GL7); assay: PASTA biochemical PARP screening assay, PARP10
PARP11 = PARP11 (Homo sapiens (Human), UniProt Q9NR21); assay: PASTA biochemical PARP screening assay, PARP11
NCI-H1373 cells = assay: Cell Titer-Glo viability, NCI-H1373; format: cell-based
Protocol: NCI-H1373 cells were seeded in a white 96-well plate (Corning) at a density of 1,000 cells per well. After 24 hours, cells were treated with PARP7 inhibitors and incubated at 37° C. for 6 days. Cell viability was assessed using CellTiter-Glo (CTG) 2.0 (Promega). After addition of the CTG reagent (following manufacturer protocol), the plate was incubated on an orbital shaker for 15 min (protected from light) at room temperature. Chemiluminescence was measured on a Spectra Max i3 (Molecular Devices), normalized to DMSO-treated wells, and IC50 values were calculated by non-linear regression (three-parameter fit) analysis using Prism 9 (GraphPad).

GST-tagged PARP7, sequence (Q7Z3E1 whole entry): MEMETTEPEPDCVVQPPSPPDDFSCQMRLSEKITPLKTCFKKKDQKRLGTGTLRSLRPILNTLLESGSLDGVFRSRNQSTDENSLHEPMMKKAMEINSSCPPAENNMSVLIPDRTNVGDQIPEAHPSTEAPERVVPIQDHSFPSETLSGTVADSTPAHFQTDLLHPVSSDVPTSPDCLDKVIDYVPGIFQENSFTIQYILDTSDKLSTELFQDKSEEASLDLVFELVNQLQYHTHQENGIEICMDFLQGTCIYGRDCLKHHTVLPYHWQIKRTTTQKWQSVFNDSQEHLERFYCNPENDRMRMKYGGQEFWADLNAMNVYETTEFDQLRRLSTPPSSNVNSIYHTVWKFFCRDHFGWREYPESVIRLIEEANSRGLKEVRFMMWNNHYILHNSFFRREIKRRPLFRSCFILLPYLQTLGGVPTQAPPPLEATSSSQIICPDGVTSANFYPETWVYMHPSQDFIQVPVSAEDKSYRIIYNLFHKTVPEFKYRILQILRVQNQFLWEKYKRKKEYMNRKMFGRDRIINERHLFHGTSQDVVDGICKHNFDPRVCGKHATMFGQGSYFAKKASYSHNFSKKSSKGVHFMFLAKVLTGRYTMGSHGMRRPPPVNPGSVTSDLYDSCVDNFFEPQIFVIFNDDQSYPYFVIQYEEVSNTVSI
T1 sequence (Q9UGN5 whole entry): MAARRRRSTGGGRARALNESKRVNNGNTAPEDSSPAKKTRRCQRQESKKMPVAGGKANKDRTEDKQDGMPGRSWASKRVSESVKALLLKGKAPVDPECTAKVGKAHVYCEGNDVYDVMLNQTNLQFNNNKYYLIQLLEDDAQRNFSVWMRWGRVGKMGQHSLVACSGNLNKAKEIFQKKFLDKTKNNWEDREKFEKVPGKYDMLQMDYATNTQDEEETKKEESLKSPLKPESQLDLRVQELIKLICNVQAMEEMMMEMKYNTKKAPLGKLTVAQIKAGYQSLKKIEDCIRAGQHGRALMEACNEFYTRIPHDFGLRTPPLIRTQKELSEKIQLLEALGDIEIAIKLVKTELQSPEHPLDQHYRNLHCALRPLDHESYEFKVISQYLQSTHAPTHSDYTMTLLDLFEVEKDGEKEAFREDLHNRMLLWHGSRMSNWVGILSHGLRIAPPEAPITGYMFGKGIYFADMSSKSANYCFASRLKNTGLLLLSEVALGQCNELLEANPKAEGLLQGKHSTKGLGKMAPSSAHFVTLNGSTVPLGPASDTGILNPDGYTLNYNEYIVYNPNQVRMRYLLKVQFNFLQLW
PARP1, sequence (P09874 whole entry, species assumed): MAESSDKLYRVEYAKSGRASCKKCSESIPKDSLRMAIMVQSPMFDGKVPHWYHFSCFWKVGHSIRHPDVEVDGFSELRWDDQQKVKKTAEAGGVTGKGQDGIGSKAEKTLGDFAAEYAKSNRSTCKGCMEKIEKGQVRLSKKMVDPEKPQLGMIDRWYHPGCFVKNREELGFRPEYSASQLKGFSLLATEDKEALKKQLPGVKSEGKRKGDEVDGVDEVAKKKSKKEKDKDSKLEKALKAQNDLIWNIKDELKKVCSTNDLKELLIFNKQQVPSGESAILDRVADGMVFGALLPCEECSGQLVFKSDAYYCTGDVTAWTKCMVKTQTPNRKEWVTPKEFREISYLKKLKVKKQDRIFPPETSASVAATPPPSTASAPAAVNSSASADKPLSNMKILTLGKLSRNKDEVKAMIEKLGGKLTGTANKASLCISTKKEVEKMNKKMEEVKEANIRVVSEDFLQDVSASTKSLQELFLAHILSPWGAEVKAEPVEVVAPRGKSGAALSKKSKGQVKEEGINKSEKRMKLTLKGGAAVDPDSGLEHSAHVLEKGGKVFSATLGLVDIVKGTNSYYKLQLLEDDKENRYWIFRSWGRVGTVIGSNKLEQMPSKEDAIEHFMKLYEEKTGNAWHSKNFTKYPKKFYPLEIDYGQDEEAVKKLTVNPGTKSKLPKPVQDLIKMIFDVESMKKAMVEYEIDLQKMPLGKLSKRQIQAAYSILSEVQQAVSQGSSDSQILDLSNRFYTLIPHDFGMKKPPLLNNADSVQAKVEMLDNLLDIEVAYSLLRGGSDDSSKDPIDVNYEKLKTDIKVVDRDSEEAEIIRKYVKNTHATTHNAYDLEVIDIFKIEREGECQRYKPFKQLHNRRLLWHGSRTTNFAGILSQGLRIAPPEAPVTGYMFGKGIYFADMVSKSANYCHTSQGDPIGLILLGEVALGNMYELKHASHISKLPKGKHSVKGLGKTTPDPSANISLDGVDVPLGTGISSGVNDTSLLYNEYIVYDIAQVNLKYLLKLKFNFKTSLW
GFP-PARP7, sequence (Q7Z3E1 whole entry): as the sequence (Q7Z3E1 whole entry) above
PARP8, sequence (Q8N3A8 whole entry, species assumed): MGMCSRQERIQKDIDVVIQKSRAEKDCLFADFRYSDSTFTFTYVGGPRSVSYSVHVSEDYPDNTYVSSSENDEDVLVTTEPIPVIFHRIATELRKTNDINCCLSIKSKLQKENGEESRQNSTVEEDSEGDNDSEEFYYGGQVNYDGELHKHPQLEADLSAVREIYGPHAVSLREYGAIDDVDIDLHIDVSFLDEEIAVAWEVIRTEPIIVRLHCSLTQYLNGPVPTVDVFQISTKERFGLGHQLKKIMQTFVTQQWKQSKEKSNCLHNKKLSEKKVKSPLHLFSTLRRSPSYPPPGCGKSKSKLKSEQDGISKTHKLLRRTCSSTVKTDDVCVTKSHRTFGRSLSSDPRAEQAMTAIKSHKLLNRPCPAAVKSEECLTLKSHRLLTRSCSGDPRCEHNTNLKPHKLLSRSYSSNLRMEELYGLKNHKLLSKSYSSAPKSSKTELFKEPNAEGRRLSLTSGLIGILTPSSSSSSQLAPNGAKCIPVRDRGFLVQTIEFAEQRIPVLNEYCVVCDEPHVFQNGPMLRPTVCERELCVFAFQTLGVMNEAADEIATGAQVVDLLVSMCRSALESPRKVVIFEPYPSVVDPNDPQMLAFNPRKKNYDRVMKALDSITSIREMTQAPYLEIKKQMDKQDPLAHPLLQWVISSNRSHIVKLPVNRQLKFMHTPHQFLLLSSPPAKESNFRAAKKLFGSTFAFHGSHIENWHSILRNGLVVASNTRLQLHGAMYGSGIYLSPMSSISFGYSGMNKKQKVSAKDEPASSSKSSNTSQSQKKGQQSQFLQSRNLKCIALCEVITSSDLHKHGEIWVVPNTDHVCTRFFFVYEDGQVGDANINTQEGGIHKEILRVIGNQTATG
PARP11, sequence (Q9NR21 whole entry, species assumed): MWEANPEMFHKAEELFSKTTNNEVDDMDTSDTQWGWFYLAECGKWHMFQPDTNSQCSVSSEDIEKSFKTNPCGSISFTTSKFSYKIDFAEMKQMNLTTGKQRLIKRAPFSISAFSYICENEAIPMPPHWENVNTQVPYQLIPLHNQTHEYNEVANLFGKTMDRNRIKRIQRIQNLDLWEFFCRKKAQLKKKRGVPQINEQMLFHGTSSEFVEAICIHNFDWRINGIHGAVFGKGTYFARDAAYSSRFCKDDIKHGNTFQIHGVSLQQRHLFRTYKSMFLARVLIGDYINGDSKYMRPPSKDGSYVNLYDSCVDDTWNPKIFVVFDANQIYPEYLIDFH
PARP16, sequence (Q8N5Y8 whole entry, species assumed): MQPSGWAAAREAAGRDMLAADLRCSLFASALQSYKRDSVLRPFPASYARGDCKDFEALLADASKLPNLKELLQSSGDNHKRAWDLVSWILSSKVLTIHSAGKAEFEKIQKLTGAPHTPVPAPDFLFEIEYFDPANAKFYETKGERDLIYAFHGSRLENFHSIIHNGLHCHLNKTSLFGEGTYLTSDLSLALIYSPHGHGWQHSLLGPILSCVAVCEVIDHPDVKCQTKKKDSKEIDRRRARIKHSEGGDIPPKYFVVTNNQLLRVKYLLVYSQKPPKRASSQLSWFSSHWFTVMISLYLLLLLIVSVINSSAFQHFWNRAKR
PARP15cat, sequence (Q460N3 482-678): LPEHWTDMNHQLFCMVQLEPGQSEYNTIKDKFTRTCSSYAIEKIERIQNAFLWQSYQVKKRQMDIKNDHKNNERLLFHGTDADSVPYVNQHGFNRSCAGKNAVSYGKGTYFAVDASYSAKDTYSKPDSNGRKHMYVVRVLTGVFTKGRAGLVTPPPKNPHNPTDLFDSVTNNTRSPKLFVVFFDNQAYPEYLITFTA
PARP6, sequence (Q2NL67 whole entry, species assumed): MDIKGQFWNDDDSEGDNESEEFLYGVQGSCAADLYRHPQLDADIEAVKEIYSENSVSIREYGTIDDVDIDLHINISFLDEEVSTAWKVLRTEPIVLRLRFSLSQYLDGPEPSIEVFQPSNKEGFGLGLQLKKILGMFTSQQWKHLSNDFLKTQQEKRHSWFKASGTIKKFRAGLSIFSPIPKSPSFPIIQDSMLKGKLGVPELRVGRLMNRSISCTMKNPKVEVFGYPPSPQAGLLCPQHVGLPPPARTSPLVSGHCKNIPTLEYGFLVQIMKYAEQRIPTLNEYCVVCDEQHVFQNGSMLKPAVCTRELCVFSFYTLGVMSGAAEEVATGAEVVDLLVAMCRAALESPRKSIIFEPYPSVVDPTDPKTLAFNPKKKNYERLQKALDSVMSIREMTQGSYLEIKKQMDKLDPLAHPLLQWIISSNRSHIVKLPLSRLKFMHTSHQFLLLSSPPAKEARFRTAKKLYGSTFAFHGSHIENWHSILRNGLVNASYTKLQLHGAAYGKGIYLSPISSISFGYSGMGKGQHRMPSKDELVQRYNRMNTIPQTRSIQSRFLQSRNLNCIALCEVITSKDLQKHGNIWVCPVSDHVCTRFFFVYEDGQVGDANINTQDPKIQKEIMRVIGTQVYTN
PARP12cat, sequence (Q9H0J9 484-698): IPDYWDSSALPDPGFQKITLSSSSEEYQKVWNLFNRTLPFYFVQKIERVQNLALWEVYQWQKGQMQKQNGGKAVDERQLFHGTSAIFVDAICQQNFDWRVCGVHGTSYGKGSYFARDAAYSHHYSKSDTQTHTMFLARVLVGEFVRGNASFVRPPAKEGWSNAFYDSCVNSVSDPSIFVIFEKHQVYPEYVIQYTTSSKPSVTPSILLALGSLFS

In the case of `CC#Cc1ccc2c(=O)[nH]nc(Cc3ccc(F)c(C(=O)N4CCN(c5ccc(C#N)cn5)CC4)c3)c2c1` [Example 10, 6-(4-(2-Fluoro-5-((4-oxo-7-(prop-1-ynyl)-3,4-dihydrophthalazin-1-yl)methyl)benzoyl)piperazin-1-yl)nicotinonitrile], the “increase in IFN-β mRNA” value (IFN-β mRNA) is reported as 3 fold, the “CYP1A1 mRNA levels” value (AHR target gene CYP1A1; in the absence of TCDD) is reported as “had no effect on CYP1A1 mRNA levels” and the “CYP1A1 mRNA levels” value (AHR target gene CYP1A1; in the presence of 1 nM TCDD) is reported as “dramatically increased CYP1A1 mRNA levels”. For the same compound, the GI50 [1] was less than 100 nM, the GI50 [2] was 1000 to 5000 nM and the IC50 (GST-tagged PARP7) was 13.7 nM. The “selectivity for PARP7 over PARP2” value (GST-tagged PARP7) was roughly 75 fold, the “selectivity for PARP7 over PARP10 and PARP11” value (GST-tagged PARP7) was roughly 10 fold and the “selectivity for PARP7 over most PARP family members beyond PARP1 and PARP2” value (GST-tagged PARP7) was greater than 50 fold. For the same compound, the IC50 (PARP6) was 775 nM, the IC50 (PARP1; read-out: IC50 PARP1) was greater than 3000 nM and the IC50 (PARP1; read-out: does not inhibit PARP1 up to) was greater than 3000 nM. For the same compound, the IC50 (PARP3) was greater than 3000 nM, the GI50 [3] was greater than 5000 nM and the “AHR ligand-mediated gene transcription (CYP1A1 mRNA)” value [4] was “derepresses AHR ligand-mediated gene transcription”. It also gave an IC50 (PARP16) of 1060 nM, an IC50 (PARP2 [5]) of 1020 nM and an IC50 (PARP8) greater than 3000 nM. For the same compound, the EC50 (GFP-PARP7) was 8 nM, the IC50 (PARP4bc) was greater than 3000 nM and the IC50 (PARP15cat) was 770 nM. It also gave an IC50 (PARP12cat) of 762 nM, an IC50 (PARP2 [6]) of 100 to 500 nM and an IC50 (PARP14wwe) of 1040 nM. The IC50 (PARP10) was 179 nM, the IC50 (PARP11) was 134 nM and the “less potent than RBN-2397 on NCI-H1373” value (NCI-H1373 cells) was roughly 6 fold. For the same compound, the EC50 (NCI-H1373 cells; Homo sapiens, NCI-H1373, 144 h, 6 days, CellTiter-Glo) was 104 nM.
